System: KB
Test: Cytotoxicity against human KB cells after 24 hrs by MTT assay
Type: functional, cell-based

**Q.** For `CC1=C[C@H]2OC(=O)[C@@]3(C)CCC[C@@](C)([C@@H]23)[C@H]1CC(=O)c1ccoc1` [HYPOPURIN A], which IC50 is on record?
**A.** The IC50 was 9.4 µM.

**Q.** Which IC50 does the source give for `CC1=C[C@H]2OC3OC(=O)[C@@]4(C)CCC[C@@]3([C@@H]24)[C@H]1CC(=O)c1ccoc1` [HYPOPURIN B] here?
**A.** Its IC50 is over 100 µM.

**Q.** With `C[C@@]12C=C[C@@H]3[C@]4(CCC[C@]3(C)C(=O)OC4O1)[C@H]2CC(=O)c1ccoc1` (some centres undefined) [HYPOPURIN C] as the compound, how does the IC50 read?
**A.** The IC50 was over 100 µM.

**Q.** With `CC1=C[C@H]2OC(=O)[C@@]3(C)CCC[C@@](C)([C@@H]23)[C@H]1CCC1=CCOC1=O` [HYPOPURIN D] as the compound, how does the IC50 read?
**A.** The IC50 was over 100 µM.

Reference: ChEMBL document CHEMBL1148960, “Furanolabdane diterpenes from Hypoestes purpurea” (J Nat Prod, 2004)
